In patent US7574340B2 (priority 2003, dated 2009):

Assays:
[1] = biological target: BoNT serotype B light chain (BoNT/B LC) (Clostridium botulinum, UniProt P10844); type: biochemical
BoNT/A LC [2] = biological target: T1, BoNT/A LC (Clostridium botulinum, UniProt P0DPI0); assay: biochemical; type: biochemical
anthrax lethal factor = anthrax lethal factor (Bacillus anthracis, UniProt P15917); type: biochemical
BoNT/A LC [3] = biological target: T1, BoNT/A LC; conditions: cited from earlier work
BoNT/A holotoxin = BoNT/A holotoxin (Clostridium botulinum, UniProt P0DPI0); conditions: 3.3 μM; cited from earlier work
Sequence of BoNT/A holotoxin (P0DPI0 2-448 limits assumed): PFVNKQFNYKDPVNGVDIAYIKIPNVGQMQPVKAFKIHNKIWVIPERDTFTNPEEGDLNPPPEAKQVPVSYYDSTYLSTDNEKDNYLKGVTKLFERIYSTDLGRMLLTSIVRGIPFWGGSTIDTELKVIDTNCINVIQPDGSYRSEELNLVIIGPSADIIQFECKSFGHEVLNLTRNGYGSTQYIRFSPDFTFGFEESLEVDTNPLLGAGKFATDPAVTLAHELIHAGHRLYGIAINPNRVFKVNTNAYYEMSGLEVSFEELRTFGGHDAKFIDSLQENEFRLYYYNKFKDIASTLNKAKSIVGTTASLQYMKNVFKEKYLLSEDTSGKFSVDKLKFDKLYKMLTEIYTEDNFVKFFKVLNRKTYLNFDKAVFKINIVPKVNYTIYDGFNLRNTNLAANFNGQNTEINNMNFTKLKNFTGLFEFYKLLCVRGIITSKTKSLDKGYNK
Sequence of BoNT/A holotoxin (P0DPI0 449-1296 limits assumed): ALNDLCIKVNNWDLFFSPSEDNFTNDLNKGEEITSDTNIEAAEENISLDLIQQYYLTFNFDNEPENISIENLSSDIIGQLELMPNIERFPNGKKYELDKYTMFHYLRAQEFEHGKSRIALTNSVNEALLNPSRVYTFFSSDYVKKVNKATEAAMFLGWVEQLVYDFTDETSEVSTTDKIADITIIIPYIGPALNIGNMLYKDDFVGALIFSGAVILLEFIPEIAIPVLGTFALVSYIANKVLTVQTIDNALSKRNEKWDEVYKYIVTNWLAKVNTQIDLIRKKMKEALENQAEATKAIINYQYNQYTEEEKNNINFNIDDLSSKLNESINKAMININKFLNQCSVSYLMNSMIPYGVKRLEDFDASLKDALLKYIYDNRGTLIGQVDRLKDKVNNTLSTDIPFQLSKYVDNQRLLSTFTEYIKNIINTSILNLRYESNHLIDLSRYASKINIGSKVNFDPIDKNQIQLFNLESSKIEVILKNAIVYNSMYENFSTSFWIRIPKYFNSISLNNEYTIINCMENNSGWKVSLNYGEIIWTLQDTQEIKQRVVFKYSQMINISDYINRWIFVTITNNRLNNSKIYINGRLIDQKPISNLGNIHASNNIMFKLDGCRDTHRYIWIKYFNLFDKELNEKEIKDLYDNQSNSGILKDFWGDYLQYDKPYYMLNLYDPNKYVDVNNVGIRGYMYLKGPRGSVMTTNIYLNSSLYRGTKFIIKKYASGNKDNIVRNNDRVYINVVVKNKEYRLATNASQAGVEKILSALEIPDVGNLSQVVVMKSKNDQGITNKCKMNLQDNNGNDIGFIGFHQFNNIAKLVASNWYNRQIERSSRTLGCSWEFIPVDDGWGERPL

T1 sequence (P0DPI0 2-448 limits assumed): as the sequence (P0DPI0 2-448 limits assumed) above
Sequence of anthrax lethal factor (P15917 34-809 limits assumed): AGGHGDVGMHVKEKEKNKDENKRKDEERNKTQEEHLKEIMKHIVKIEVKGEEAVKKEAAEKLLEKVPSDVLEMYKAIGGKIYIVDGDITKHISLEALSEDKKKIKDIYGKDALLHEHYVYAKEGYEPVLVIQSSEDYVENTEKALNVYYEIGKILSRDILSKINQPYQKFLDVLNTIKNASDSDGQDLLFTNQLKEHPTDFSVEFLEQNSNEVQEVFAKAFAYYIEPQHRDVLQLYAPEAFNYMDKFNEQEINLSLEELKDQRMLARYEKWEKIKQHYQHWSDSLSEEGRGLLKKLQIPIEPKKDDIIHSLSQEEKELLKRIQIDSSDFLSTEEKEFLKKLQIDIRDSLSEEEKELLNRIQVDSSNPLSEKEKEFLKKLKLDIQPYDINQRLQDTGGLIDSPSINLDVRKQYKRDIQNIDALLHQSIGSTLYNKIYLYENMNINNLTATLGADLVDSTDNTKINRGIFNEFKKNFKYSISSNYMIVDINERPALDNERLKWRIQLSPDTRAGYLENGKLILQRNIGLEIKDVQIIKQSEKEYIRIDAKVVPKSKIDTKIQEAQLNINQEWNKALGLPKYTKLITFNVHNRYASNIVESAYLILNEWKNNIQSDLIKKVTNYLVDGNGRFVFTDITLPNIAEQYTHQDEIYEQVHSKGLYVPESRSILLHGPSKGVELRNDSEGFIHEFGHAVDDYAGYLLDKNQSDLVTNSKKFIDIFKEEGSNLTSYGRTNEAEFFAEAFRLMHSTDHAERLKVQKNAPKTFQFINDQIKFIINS
Sequence of BoNT serotype B light chain (BoNT/B LC) (P10844 2-441 limits assumed): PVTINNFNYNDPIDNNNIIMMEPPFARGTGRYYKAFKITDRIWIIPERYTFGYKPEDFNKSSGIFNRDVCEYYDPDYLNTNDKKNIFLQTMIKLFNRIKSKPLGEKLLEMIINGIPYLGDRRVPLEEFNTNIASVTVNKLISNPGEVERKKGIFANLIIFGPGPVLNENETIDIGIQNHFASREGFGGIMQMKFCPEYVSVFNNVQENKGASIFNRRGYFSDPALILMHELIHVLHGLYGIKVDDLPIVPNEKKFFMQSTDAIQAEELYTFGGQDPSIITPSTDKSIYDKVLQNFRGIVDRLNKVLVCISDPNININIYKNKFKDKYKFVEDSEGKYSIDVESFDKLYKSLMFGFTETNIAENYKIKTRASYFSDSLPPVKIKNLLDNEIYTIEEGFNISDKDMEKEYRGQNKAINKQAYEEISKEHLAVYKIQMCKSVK

Question: What does the source list for `CCOc1ccc2c(ccc(/C=C/c3ccc4c(C)ccnc4c3O)[n+]2C)c1` [NSC 86372]?
Answer: inhibition of BoNT/B LC protease activity (in words) [1]: inhibit; effect of addition of zinc on inhibition (BoNT/A LC [2]): immediately and quantitatively reversed inhibition; inhibition at 20 µM (BoNT/A LC [2]): 51%; inhibition of anthrax lethal factor (in words) (anthrax lethal factor): inhibit

Question: Which inhibition at 20 µM (BoNT/A LC [2]) does the source give for `O=C(O)c1c(I)c(I)c(I)c(I)c1C1c2ccc(O)cc2Oc2cc(O)ccc21` [NSC 119889] here?
Answer: The inhibition at 20 µM was 56%.

Question: With `C[C@H](CS)C(=O)N1CCC[C@H]1C(=O)O` [captopril] as the compound, how does the “BoNT/A LC inhibition (in words)” value (BoNT/A LC [3]) read?
Answer: Its value is “inhibited by mM concentrations”.

Question: For `O=[N+]([O-])c1cc(Cc2cc([N+](=O)[O-])c3cccnc3c2O)c(O)c2ccccc12` [NSC 130796], which “inhibition of BoNT/B LC protease activity (in words)” value [1] is on record?
Answer: The value was “inhibit”.

Question: What about the inhibition at 20 µM (BoNT/A LC [2]) of the same compound?
Answer: Its inhibition at 20 µM is 48%.

Question: What about the “inhibition of anthrax lethal factor (in words)” value (anthrax lethal factor) of the same compound?
Answer: The value was “inhibit”.

Question: Which results are given for `CCN(CC)CCCC(C)Nc1c2ccc(Cl)cc2nc2ccc(OC)cc12` (racemic) [Quinacrine (racemic), Quinacrine]?
Answer: delay of the time to about 50% muscle paralysis (over control) (BoNT/A holotoxin): at least 30%; inhibition at 20 µM (BoNT/A LC [2]): 30%

Question: With Quinine as the compound, how does the “% Inhibition” value (BoNT/A LC [2]) read?
Answer: Its value is 9 3%.

Question: With `[Ag+]` [silver ion] as the compound, how does the “effect of addition of DTT on inhibition” value (BoNT/A LC [2]) read?
Answer: The value was “immediately reversed inhibition”.

Question: And the “effect of zinc in assays on inhibition” value (BoNT/A LC [2])?
Answer: Its value is “no effect”.

Question: And the “inhibition of protease activity” value (BoNT/A LC [2])?
Answer: Its value is “about 100%”.

Question: For `Ic1ccc2nc3cc(Nc4ccc5c(c4)nc4ccc(I)cc4[n+]5-c4ccccc4)ccc3[n+](-c3ccccc3)c2c1` [NSC 402959], which inhibition at 20 µM (BoNT/A LC [2]) is on record?
Answer: Its inhibition at 20 µM is 40%.

Question: For `COc1cc(C)cc2c(-c3c(O)cc(O)c4c3C[C@@H](C)N[C@@H]4C)cc(-c3cc(-c4c(O)cc(O)c5c4C[C@@H](C)N[C@@H]5C)c4cc(C)cc(OC)c4c3O)c(O)c12` [NSC 661755, Michellamine B], which “effect of added zinc on inhibition of BoNT/A LC” value (BoNT/A LC [2]) is on record?
Answer: Its value is “not affected by added zinc”.

Question: And the inhibition at 20 µM (BoNT/A LC [2])?
Answer: The inhibition at 20 µM was 62%.

Question: Which “BoNT/A LC inhibition (in words)” value (BoNT/A LC [3]) does the source give for `CCOC(=O)[C@H](CCc1ccccc1)N[C@@H](C)C(=O)N1CCC[C@H]1C(=O)O` [enalapril] here?
Answer: The value was “inhibited by mM concentrations”.

Question: Which inhibition at 20 µM (BoNT/A LC [2]) does the source give for `CCN(CC)CCCC(C)Nc1ccnc2cc(Cl)ccc12` (racemic) [Chloroquine (racemic), Chloroquine] here?
Answer: Its inhibition at 20 µM is 20%.

Question: For `CCN(CC)Cc1cc(Nc2ccnc3cc(Cl)ccc23)ccc1O` [Amodiaquine], which “% Inhibition” value (BoNT/A LC [2]) is on record?
Answer: Its value is 20%.

Question: What about the inhibition at 20 µM (BoNT/A LC [2]) of the same compound?
Answer: Its inhibition at 20 µM is 30%.

Question: Which “% Inhibition” value (BoNT/A LC [2]) does the source give for Quinidine here?
Answer: Its value is 9 3%.

Question: With `NCCCC[C@H](N[C@@H](CCc1ccccc1)C(=O)O)C(=O)N1CCC[C@H]1C(=O)O` [lysinopril] as the compound, how does the “BoNT/A LC inhibition (in words)” value (BoNT/A LC [3]) read?
Answer: The value was “inhibited by mM concentrations”.

Question: For `Nc1c(/C=C/c2cc3cc(C4=NCCN4)ccc3o2)[nH]c2cc(C3=NCCN3)ccc12` [NSC 357756], which inhibition at 20 µM (BoNT/A LC [2]) is on record?
Answer: The inhibition at 20 µM was 57%.
